Experiment [1] addresses T1, yeast 20S proteasome core particle (yCP), β5 active site (ChT-L activity) (Saccharomyces cerevisiae, UniProt P23724+P30656, P30656:K108A).
T1 construct: gene PRE2; native 20S core particle purified from yeast (α7β7β7α7, 28 subunits), untagged; β5 mature after autocatalytic propeptide removal; in 'pp trans' mutants the β5 propeptide is expressed separately; with Proteasome subunit beta type-1; Proteasome subunit beta type-2; Proteasome subunit beta type-3; Proteasome subunit beta type-4; Proteasome subunit beta type-7; Proteasome subunit alpha type-1; Proteasome subunit alpha type-2; Proteasome subunit alpha type-3; Proteasome subunit alpha type-4; Proteasome subunit alpha type-5; Proteasome subunit alpha type-6; Probable proteasome subunit alpha type-7
T1 sequence (P30656 76-287 K108A): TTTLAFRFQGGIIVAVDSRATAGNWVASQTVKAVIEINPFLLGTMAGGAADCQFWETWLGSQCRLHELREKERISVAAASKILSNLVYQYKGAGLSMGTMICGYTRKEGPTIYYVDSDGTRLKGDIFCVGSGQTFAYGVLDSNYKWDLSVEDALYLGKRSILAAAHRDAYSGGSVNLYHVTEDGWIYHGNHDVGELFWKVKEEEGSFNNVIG
T1 sequence (P23724 20-241): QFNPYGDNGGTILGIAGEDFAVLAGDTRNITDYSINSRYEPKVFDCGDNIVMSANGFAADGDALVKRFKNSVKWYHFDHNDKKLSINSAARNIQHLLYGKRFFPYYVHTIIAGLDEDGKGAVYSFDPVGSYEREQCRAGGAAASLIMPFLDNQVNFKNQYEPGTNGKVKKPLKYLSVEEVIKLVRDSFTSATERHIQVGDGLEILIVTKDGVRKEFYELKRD
Put plainly: X-ray crystal structure. It is filed as binding. The following applies: propeptide expressed in trans, covalent.

Experiment [2] deals with T2, yeast 20S proteasome core particle (yCP), β5 active site (ChT-L activity) (Saccharomyces cerevisiae, UniProt P23724+P30656, P30656:D243N).
T2 construct: gene PRE2; native 20S core particle purified from yeast (α7β7β7α7, 28 subunits), untagged; β5 mature after autocatalytic propeptide removal; in 'pp trans' mutants the β5 propeptide is expressed separately; with Proteasome subunit beta type-1; Proteasome subunit beta type-2; Proteasome subunit beta type-3; Proteasome subunit beta type-4; Proteasome subunit beta type-7; Proteasome subunit alpha type-1; Proteasome subunit alpha type-2; Proteasome subunit alpha type-3; Proteasome subunit alpha type-4; Proteasome subunit alpha type-5; Proteasome subunit alpha type-6; Probable proteasome subunit alpha type-7
T2 sequence (P30656 76-287 D243N): T1 sequence (P30656 76-287 K108A) with A33K, D168N
T2 sequence (P23724 20-241): T1 sequence (P23724 20-241)
Put plainly: X-ray crystal structure. The class given is binding. The following applies: crystal soak; covalent (morpholine ring with Thr1).

Experiment [3] concerns the target T3, yeast 20S proteasome core particle (yCP), β5 active site (ChT-L activity) (Saccharomyces cerevisiae, UniProt P23724+P30656).
T3 construct: gene PRE2; native 20S core particle purified from yeast (α7β7β7α7, 28 subunits), untagged; β5 mature after autocatalytic propeptide removal; in 'pp trans' mutants the β5 propeptide is expressed separately; with Proteasome subunit beta type-1; Proteasome subunit beta type-2; Proteasome subunit beta type-3; Proteasome subunit beta type-4; Proteasome subunit beta type-7; Proteasome subunit alpha type-1; Proteasome subunit alpha type-2; Proteasome subunit alpha type-3; Proteasome subunit alpha type-4; Proteasome subunit alpha type-5; Proteasome subunit alpha type-6; Probable proteasome subunit alpha type-7
T3 sequence (P30656 76-287): T1 sequence (P30656 76-287 K108A) with A33K
T3 sequence (P23724 20-241): T1 sequence (P23724 20-241)
As to the kind of experiment: fluorescence inhibition assay, Suc-LLVY-AMC. The class given is biochemical.

Experiment [4] has as its target T4, yeast 20S proteasome core particle (yCP), β5 active site (ChT-L activity) (Saccharomyces cerevisiae, UniProt P23724+P30656, P30656:T76S).
T4 construct: gene PRE2; native 20S core particle purified from yeast (α7β7β7α7, 28 subunits), untagged; β5 mature after autocatalytic propeptide removal; in 'pp trans' mutants the β5 propeptide is expressed separately; with Proteasome subunit beta type-1; Proteasome subunit beta type-2; Proteasome subunit beta type-3; Proteasome subunit beta type-4; Proteasome subunit beta type-7; Proteasome subunit alpha type-1; Proteasome subunit alpha type-2; Proteasome subunit alpha type-3; Proteasome subunit alpha type-4; Proteasome subunit alpha type-5; Proteasome subunit alpha type-6; Probable proteasome subunit alpha type-7
T4 sequence (P30656 76-287 T76S): T1 sequence (P30656 76-287 K108A) with T1S, A33K
T4 sequence (P23724 20-241): T1 sequence (P23724 20-241)
Put plainly: fluorescence inhibition assay, Suc-LLVY-AMC. The class given is biochemical.

Numbering of substitutions follows the chain as printed.

Take `CC(C)C[C@H](NC(=O)[C@H](CCc1ccccc1)NC(=O)CN1CCOCC1)C(=O)N[C@@H](Cc1ccccc1)C(=O)N[C@@H](CC(C)C)C(=O)[C@@]1(C)CO1` [carfilzomib]: the X-ray crystal structure entry is “crystal structure of the β5-K33A pp trans mutant in complex with carfilzomib” in experiment [1]; “Soaking the β5-D166N crystals with carfilzomib and MG132 resulted in covalent modification of Thr1” in experiment [2].

What is called IC50 is the concentration needed to halve the response being measured. A high value points to a need for much substance. Consider `CC(C)C[C@H](NC(=O)[C@H](Cc1ccccc1)NC(=O)c1cnccn1)B(O)O` [bortezomib], for which the 50% inhibitory concentration (IC50) was 0.174 ± 0.029 µM in experiment [3] and 0.649 ± 0.176 µM in experiment [4].

The values above are taken from PMC4792962, “A unified mechanism for proteolysis and autocatalytic activation in the 20S proteasome” (Nature Communications, 2016).
